Data taken from patent US20230092001A1, “FURANEOL GLYCOSIDE COMPOUND, PHARMACEUTICAL COMPOSITION THEREOF, PREPARATION METHOD THEREFOR, AND APPLICATION THEREOF” (priority 2019, published 2023).

Assays:
[1] = system: ulcerative colitis model (dextran sodium sulphate); experiment: Effect Example 1: therapeutic effect on ulcerative colitis, dextran sodium sulphate model, injected treatment, 14 days; type: in vivo, C57 mice; settings: for Average colon length of mice / Average colon weight of mice / Unit colon weight of mice (colon weight/colon length): day 14
Experimental: Thirty 10-week-old male C57 mice, SPF class animal house, temperature 20-26° C., humidity 40%-70%, alternating light-dark periods (12 h/12 h).
(§1) Quarantine-qualified animals with similar weights were selected for the experiment.
Mice in the blank control group were given normal drinking water throughout the experiment. The other 5 groups of mice were given drinking water containing 2% dextran sodium sulphate (DSS) from day 1 to day 5, normal drinking water from day 6 to day 7, drinking water containing 2% dextran sodium sulphate from day 8 to day 12, and normal drinking water from day 13 to day 14. The experiment ended on day 14.
Animals in the blank control group and ulcerative colitis model group were given sterile water intraperitoneally from day 1, once a day; the other 4 groups were administered according to table 1, once a day, until the end of the experiment on day 14. Two hours after the first day of administration, the mice were started to drink water containing dextran sodium sulphate.
(§2) (1) The mice were weighed daily.
(2) Blood samples were collected from the orbital vein on day 14 and stored at −80° C.
(3) On day 14, the mice were sacrificed by cervical vertebra dislocation, the colon was removed and a small amount of fecal was taken from the colon and left as a sample. The colon length and colon weight were measured. A portion of the colon and the fecal sample was stored at −80° C.

[2] = system: ulcerative colitis model (dextran sodium sulphate); experiment: Effect Example 3: therapeutic effect on ulcerative colitis, dextran sodium sulphate model, oral gavage, 7 days; type: in vivo, C57 mice; settings: 40 mg/kg oral gavage
Experimental: Fifty 10-week-old male C57 mice, SPF class animal house, temperature 20-26° C., humidity 40%-70%, alternating light-dark periods (12 h/12 h).
as §1
Mice in the blank control group were given normal drinking water throughout the experiment. The other 9 groups of mice were given drinking water containing 2% dextran sodium sulphate from day 1 to day 7. All groups were administered by oral gavage once a day according to table 10, until the end of the experiment.
as §2
(2) Blood samples were collected from the orbital vein on day 7 and stored at −80° C.
(3) On day 7, the mice were sacrificed by cervical vertebra dislocation, the colon was removed and a small amount of fecal was taken from the colon and left as a sample. The colon length and colon weight were measured. A portion of the colon and the fecal sample was stored at −80° C.

[3] = Day 10, high-dose treatment group 40 mg/kg intraperitoneal injection
[4] = Day 10, low-dose treatment group 10 mg/kg intraperitoneal injection
[5] = Day 10, middle-dose treatment group 20 mg/kg intraperitoneal injection
[6] = Day 11, high-dose treatment group 40 mg/kg intraperitoneal injection
[7] = Day 11, low-dose treatment group 10 mg/kg intraperitoneal injection
[8] = Day 11, middle-dose treatment group 20 mg/kg intraperitoneal injection
[9] = Day 12, high-dose treatment group 40 mg/kg intraperitoneal injection
[10] = Day 12, low-dose treatment group 10 mg/kg intraperitoneal injection
[11] = Day 12, middle-dose treatment group 20 mg/kg intraperitoneal injection
[12] = Day 13, high-dose treatment group 40 mg/kg intraperitoneal injection
[13] = Day 13, low-dose treatment group 10 mg/kg intraperitoneal injection
[14] = Day 13, middle-dose treatment group 20 mg/kg intraperitoneal injection
[15] = Day 14, high-dose treatment group 40 mg/kg intraperitoneal injection
[16] = Day 14, low-dose treatment group 10 mg/kg intraperitoneal injection
[17] = Day 14, middle-dose treatment group 20 mg/kg intraperitoneal injection
[18] = high-dose treatment group 40 mg/kg intraperitoneal injection
[19] = low-dose treatment group 10 mg/kg intraperitoneal injection
[20] = middle-dose treatment group 20 mg/kg intraperitoneal injection
[21] = intraperitoneal injection 10, 20, 40 mg/kg, vs ulcerative colitis model group

## CC(C)=C1OC(C)=C(O[C@@H]2O[C@H](CO)[C@@H](O)[C@H](O)[C@H]2O)C1=O [Compound I-1, 4-O-β-D-glucosyl-5-methyl-2-(1-methylethylidene)-3(2H)-furanone]
[1]; Day 9, middle-dose treatment group 20 mg/kg intraperitoneal injection
  Rate of change in weight of mice: 93.2%
[1]; [3]
  Average weight of mice: 25.6 g
  Rate of change in weight of mice: 92.7%
[1]; [4]
  Average weight of mice: 24.9 g
  Rate of change in weight of mice: 89.1%
[1]; [5]
  Average weight of mice: 25.6 g
  Rate of change in weight of mice: 92.2%
[1]; [6]
  Average weight of mice: 25.5 g
  Rate of change in weight of mice: 92.2%
[1]; [7]
  Average weight of mice: 24.4 g
  Rate of change in weight of mice: 87.5%
[1]; [8]
  Average weight of mice: 25.3 g
  Rate of change in weight of mice: 91.1%
[1]; [9]
  Average weight of mice: 25.4 g
  Rate of change in weight of mice: 92.0%
[1]; [10]
  Average weight of mice: 24.1 g
  Rate of change in weight of mice: 86.4%
[1]; [11]
  Average weight of mice: 25.0 g
  Rate of change in weight of mice: 90.0%
[1]; [12]
  Average weight of mice: 25.3 g
  Rate of change in weight of mice: 91.5%
[1]; [13]
  Average weight of mice: 23.8 g
  Rate of change in weight of mice: 85.3%
[1]; [14]
  Average weight of mice: 24.8 g
  Rate of change in weight of mice: 89.2%
[1]; [15]
  Average weight of mice: 25.2 g
  Rate of change in weight of mice: 91.4%
[1]; [16]
  Average weight of mice: 23.7 g
  Rate of change in weight of mice: 84.9%
[1]; [17]
  Average weight of mice: 24.7 g
  Rate of change in weight of mice: 88.8%
[1]; [18]
  Average colon length of mice: 6.52 cm
  Average colon weight of mice: 0.2129 g
  Unit colon weight of mice (colon weight/colon length): 0.0327 g/cm
[1]; [19]
  Average colon length of mice: 5.46 cm
  Average colon weight of mice: 0.1909 g
  Unit colon weight of mice (colon weight/colon length): 0.0351 g/cm
[1]; [20]
  Average colon length of mice: 6.04 cm
  Average colon weight of mice: 0.2115 g
  Unit colon weight of mice (colon weight/colon length): 0.0351 g/cm
[1]; high-dose treatment group 40 mg/kg intraperitoneal injection vs cyclosporine A 50 mg/kg
  Colon length compared with the positive control group (in words): even better than the positive control group
[1]; [21]
  Effect on the length of the colon (in words): could gradually restore the length of the colon to normal
  Effect on the reduction in the weight of mice (in words): significant ameliorating effect on the reduction in the weight of mice
  Effect on the unit colon weight (in words): could significantly improve the unit colon weight
[2]
  Effect on the colon length (in words): can gradually restore the colon length
[2]; Day 1
  Average weight of mice: 21.33 g
[2]; Day 2
  Average weight of mice: 20.97 g
[2]; Day 3
  Average weight of mice: 20.80 g
[2]; Day 4
  Average weight of mice: 20.85 g
[2]; Day 5
  Average weight of mice: 20.53 g
[2]; Day 6
  Average weight of mice: 20.13 g
[2]; Day 7
  Average weight of mice: 19.82 g
[2]; day 7
  Average colon length of mice: 6.2 cm
